Assay results: paper PMC6272685, “Docking and Antiherpetic Activity of 2-Aminobenzo[de]-isoquinoline-1,3-diones” (Molecules, 2015)
Values after ≈ are worked out from the molar mass of the structure shown. “Also recorded” adds a separate entry of the source.

Legend:
HSV-1 = test: cytopathic effect inhibition assay against HSV-1 in Vero cells; format: cell-based, herpes simplex virus 1 (GHSV-UL46); settings: for HSV-1 EC50: Vero cells, 48 h, cytopathic effect inhibition; for HSV-1 SI: ratio of CC50 to EC50; for activity class in terms of SI-values (HSV-1): virus not named, agrees with HSV-1 SI of Table 2; for antiviral activity against HSV-1 in words: in comparison with compounds 14–16; as to activity class in terms of SI-values (HSV-1): key: inactive (SI < 2); active (SI ≥ 2)
Description: (§1) Vero cells (derived from the kidney of a normal African green monkey) were obtained from the American Type Culture Collection (ATCC, Manassas, VA, USA). The viral strains used were GHSV-UL46 for HSV-1 and the G strain for HSV-2. The Vero cells were propagated in Dulbecco’s modified Eagle’s medium (DMEM) supplemented with 10% heat-inactivated foetal bovine serum (FBS), 1% L-glutamine, HEPES buffer and 50 µg/mL gentamycin. All cells were maintained at 37 °C in a humidified atmosphere with 5% CO2 and were subcultured two times a week.
(§2) The antiviral screening was performed using a cytopathic effect inhibition assay at the Regional Center for Mycology and Biotechnology (RCMB, Al-Azhar University, Cairo, Egypt). This assay was selected to show specific inhibition of a biological function, that is, a cytopathic effect in susceptible mammalian cells. In brief, monolayers of 10,000 Vero cells adhering at the bottom of the wells in a 96-well microtiter plate were incubated for 24 h at 37 °C in a humidified incubator with 5% CO2. The plates were washed with fresh DMEM and challenged with 10^4 doses of herpes simplex 1 or 2 virus, and then the cultures were simultaneously treated with two-fold serial dilutions of the tested compound, starting from 500 µg/mL and going up to about 2 µg/mL (500, 250, 125, 62.5, …, 1.95 µg/mL) in a fresh maintenance medium; following this, they were incubated at 37 °C for 48 h. An infection control, as well as an untreated Vero cell control were made in the absence of tested compounds. […] Antiviral activity was determined by the inhibition of the cytopathic effect compared to a control, that is, the protection offered by the tested compound to the cells was scored. Three independent experiments were assessed, each containing four replicates per treatment.
(§3) After the incubation period, the media was aspirated, and then the cells were stained with a 1% crystal violet solution for 30 min. Thereafter, all excess stain was removed by rinsing the plates with tap water. The plates were allowed to dry, and then glacial acetic acid (30%) was added to all wells and mixed thoroughly. The absorbance of the plates was measured after gentle shaking on a microplate reader (Tecan Inc., Morrisville, NC, USA), at 590 nm. The viral inhibition rate was calculated as follows: [(ODtv − ODcv)/(ODcd − ODcv)] × 100% where ODtv, ODcv and ODcd indicate the absorbance of the tested compounds with virus-infected cells, the absorbance of the virus control and the absorbance of the cell control, respectively.
EC50 values were determined directly from the curve obtained by plotting the inhibition of the virus yield against the concentration of the samples. […] This index is referred to as a therapeutic index, and it was also used to determine whether a compound warranted further study.

Vero cells = test: cytotoxicity evaluation using viability assay (crystal violet); format: cell-based, African green monkey; settings: 48 h
Description: as §1
The Vero cell lines in the cytotoxicity assay were seeded in 96-well plates at a cell concentration of 1 × 10^4 cells per well in 100 µL of the growth medium. Fresh medium containing different concentrations of the tested sample was added after 24 h of seeding. Serial two-fold dilutions of the tested compound were added to confluent cell monolayers dispensed into 96-well, flat-bottomed microtiter plates (Falcon, Jersey, NJ, USA) using a multichannel pipette. The microtiter plates were incubated at 37 °C in a humidified incubator with 5% CO2 for a period of 48 h. Three wells were used for each concentration of the tested sample. Control cells were incubated without test samples and with or without DMSO. The small percentage of DMSO present in the wells (maximal 0.1%) was not found to affect the experiment.
After the end of the incubation period, the viable cell yield was determined by a colorimetric method. In brief, the process of treatment the media with crystal violet solution and measurement of absorbance at 590 nm using a microplate reader was mentioned above. The absorbance was proportional to the number of surviving cells in the culture plate. All the results were corrected for background absorbance detected in wells without added stain. Treated samples were compared with the cell control in the absence of the tested compounds. All experiments were carried out in triplicate. The cell cytotoxicity effect of each tested compound was calculated.
Statistics were done using a one-way ANOVA test, and the percentage cell viability was calculated using Microsoft Excel®, as follows: % Cell viability = [(Mean Abscontrol− Mean Abstest metabolite)/Mean Abscontrol] × 100 where Abs equals the absorbance at 590 nm. The CC50 was estimated from graphic plots and the STATA statistical analysis package was used for the drawing of the dose response curve, in order to calculate CC50. Concerning antiviral evaluation, all experiments and data analysis were performed in RCMB, Al-Azhar University, Cairo, Egypt.

HSV-2 = test: cytopathic effect inhibition assay against HSV-2 in Vero cells; format: cell-based, herpes simplex virus 2 (G strain); settings: for HSV-2 EC50: Vero cells, 48 h, cytopathic effect inhibition; for antiviral activity against HSV-2 in words: in comparison with compounds 14–16; for HSV-2 SI: ratio of CC50 to EC50; as to activity class in terms of SI-values (HSV-2): key: inactive (SI < 2); active (SI ≥ 2)
Description: as §1, §2, §3
EC50 values were determined directly from the curve obtained by plotting the inhibition of the virus yield against the concentration of the samples. The selectivity index (SI) was calculated from the ratio of CC50 to EC50 in order to determine whether each compound had sufficient antiviral activity that exceeded its level of toxicity. This index is referred to as a therapeutic index, and it was also used to determine whether a compound warranted further study.

CC=NN1C(=O)c2cccc3cccc(c23)C1=O [Compound 1]
HSV-1 EC50 (HSV-1): >500 µg/mL | CC50 (Vero cells): 375 ± 25 µg/mL (≈ 1570 µM) | HSV-2 EC50 (HSV-2): >500 µg/mL

CCC=NN1C(=O)c2cccc3cccc(c23)C1=O [Compound 2]
HSV-1 EC50 (HSV-1): >500 µg/mL | CC50 (Vero cells): 317 ± 13 µg/mL (≈ 1260 µM) | HSV-2 EC50 (HSV-2): >500 µg/mL

O=C1c2cccc3cccc(c23)C(=O)N1N=Cc1ccccc1 [Compound 3]
HSV-1 EC50 (HSV-1): 158 ± 1.8 µg/mL | HSV-1 SI (HSV-1): 1.2 | CC50 (Vero cells): 196 ± 22 µg/mL (≈ 653 µM) | HSV-2 EC50 (HSV-2): >500 µg/mL

COc1ccccc1C=NN1C(=O)c2cccc3cccc(c23)C1=O [Compound 4]
HSV-1 EC50 (HSV-1): 189 ± 3.2 µg/mL | HSV-1 SI (HSV-1): 2.6 | activity class in terms of SI-values (HSV-1) (HSV-1): active | CC50 (Vero cells): 486 ± 18 µg/mL (≈ 1470 µM) | HSV-2 EC50 (HSV-2): 312 ± 9.6 µg/mL | antiviral activity against HSV-2 in words (HSV-2): low activity | HSV-2 SI (HSV-2): 1.6

COc1cccc(C=NN2C(=O)c3cccc4cccc(c34)C2=O)c1 [Compound 5]
HSV-1 EC50 (HSV-1): 176 ± 4.6 µg/mL | antiviral activity against HSV-1 in words (HSV-1): low activity | HSV-1 SI (HSV-1): 2.6 | activity class in terms of SI-values (HSV-1) (HSV-1): active | CC50 (Vero cells): 452 ± 9 µg/mL (≈ 1370 µM) | HSV-2 EC50 (HSV-2): >500 µg/mL

O=C1c2cccc3cccc(c23)C(=O)N1N=Cc1cccc([N+](=O)[O-])c1 [Compound 6]
HSV-1 EC50 (HSV-1): 174 ± 1.8 µg/mL | antiviral activity against HSV-1 in words (HSV-1): low activity | HSV-1 SI (HSV-1): 1.8 | CC50 (Vero cells): 316 ± 11 µg/mL (≈ 915 µM) | HSV-2 EC50 (HSV-2): >500 µg/mL

O=C1c2cccc3cccc(c23)C(=O)N1N=Cc1ccc(O)cc1 [Compound 7]
HSV-1 EC50 (HSV-1): 113 ± 4.6 µg/mL | antiviral activity against HSV-1 in words (HSV-1): good antiviral effect | HSV-1 SI (HSV-1): 3.6 | activity class in terms of SI-values (HSV-1) (HSV-1): active | CC50 (Vero cells): 412 ± 24 µg/mL (≈ 1300 µM) | HSV-2 EC50 (HSV-2): 220 ± 3.8 µg/mL | antiviral activity against HSV-2 in words (HSV-2): low activity | HSV-2 SI (HSV-2): 1.9

CN(C)c1ccc(C=NN2C(=O)c3cccc4cccc(c34)C2=O)cc1 [Compound 8]
HSV-1 EC50 (HSV-1): >500 µg/mL | CC50 (Vero cells): 289 ± 13 µg/mL (≈ 842 µM) | HSV-2 EC50 (HSV-2): >500 µg/mL

COc1cc(C=NN2C(=O)c3cccc4cccc(c34)C2=O)ccc1O [Compound 9]
HSV-1 EC50 (HSV-1): 78.3 ± 1.5 µg/mL | antiviral activity against HSV-1 in words (HSV-1): good antiviral effect | HSV-1 SI (HSV-1): 3.0 | activity class in terms of SI-values (HSV-1) (HSV-1): active | CC50 (Vero cells): 236 ± 8 µg/mL (≈ 681 µM) | activity class in terms of SI-values (HSV-2) (HSV-2): active | HSV-2 EC50 (HSV-2): 108 ± 4.1 µg/mL | HSV-2 SI (HSV-2): 2.2

COc1ccc(C=NN2C(=O)c3cccc4cccc(c34)C2=O)c(OC)c1 [Compound 10]
HSV-1 EC50 (HSV-1): 149 ± 5.3 µg/mL | antiviral activity against HSV-1 in words (HSV-1): low activity | HSV-1 SI (HSV-1): 2.6 | activity class in terms of SI-values (HSV-1) (HSV-1): active | CC50 (Vero cells): 380 ± 16 µg/mL (≈ 1050 µM) | HSV-2 EC50 (HSV-2): 416 ± 8.2 µg/mL | antiviral activity against HSV-2 in words (HSV-2): low activity | HSV-2 SI (HSV-2): 0.9

O=C1c2cccc3cccc(c23)C(=O)N1N=Cc1ccc(Cl)cc1Cl [Compound 11]
HSV-1 EC50 (HSV-1): >500 µg/mL | CC50 (Vero cells): 316 ± 24 µg/mL (≈ 856 µM) | HSV-2 EC50 (HSV-2): >500 µg/mL

O=C1c2cccc3cccc(c23)C(=O)N1N=Cc1cccnc1 [Compound 13]
HSV-1 EC50 (HSV-1): 117.2 ± 3.1 µg/mL | HSV-1 SI (HSV-1): 3.9 | activity class in terms of SI-values (HSV-1) (HSV-1): active | CC50 (Vero cells): 458 ± 27 µg/mL (≈ 1520 µM) | HSV-2 EC50 (HSV-2): 308 ± 7.1 µg/mL | antiviral activity against HSV-2 in words (HSV-2): low activity | HSV-2 SI (HSV-2): 1.5

O=C1c2cccc3cccc(c23)C(=O)N1N=Cc1ccco1 [Compound 14]
HSV-1 EC50 (HSV-1): 19.6 ± 0.9 µg/mL | antiviral activity against HSV-1 in words (HSV-1): most active; also recorded: highest effects | HSV-1 SI (HSV-1): 16.4 | CC50 (Vero cells): 321 ± 23 µg/mL (≈ 1110 µM) | activity class in terms of SI-values (HSV-2) (HSV-2): active | HSV-2 EC50 (HSV-2): 71.8 ± 1.8 µg/mL | HSV-2 SI (HSV-2): 4.5

O=C1c2cccc3cccc(c23)C(=O)N1N=Cc1ccsc1 [Compound 15]
HSV-1 EC50 (HSV-1): 16.2 ± 1.1 µg/mL | antiviral activity against HSV-1 in words (HSV-1): most active; also recorded: highest effects | HSV-1 SI (HSV-1): 11.1 | CC50 (Vero cells): 180 ± 8 µg/mL (≈ 588 µM) | activity class in terms of SI-values (HSV-2) (HSV-2): active | HSV-2 EC50 (HSV-2): 56.7 ± 2.6 µg/mL | HSV-2 SI (HSV-2): 3.2

C=CCNC(=S)NN1C(=O)c2cccc3cccc(c23)C1=O [Compound 16]
HSV-1 EC50 (HSV-1): 17.8 ± 1.4 µg/mL | antiviral activity against HSV-1 in words (HSV-1): highest effects | HSV-1 SI (HSV-1): 5.4 | activity class in terms of SI-values (HSV-1) (HSV-1): active | CC50 (Vero cells): 96 ± 12 µg/mL (≈ 308 µM) | HSV-2 EC50 (HSV-2): 292 ± 4.8 µg/mL | HSV-2 SI (HSV-2): 0.3

O=C1c2cccc3cccc(c23)C(=O)N1NC(=S)Nc1ccccc1 [Compound 17]
HSV-1 EC50 (HSV-1): 236 ± 4.9 µg/mL | antiviral activity against HSV-1 in words (HSV-1): low activity | HSV-1 SI (HSV-1): 2.2 | activity class in terms of SI-values (HSV-1) (HSV-1): active | CC50 (Vero cells): 518 ± 34 µg/mL (≈ 1490 µM) | HSV-2 EC50 (HSV-2): >500 µg/mL

O=C1c2cccc3cccc(c23)C(=O)N1NC(=S)NC1CCCCC1 [Compound 18]
HSV-1 EC50 (HSV-1): 319 ± 3.7 µg/mL | antiviral activity against HSV-1 in words (HSV-1): low activity | HSV-1 SI (HSV-1): 1.5 | CC50 (Vero cells): 482 ± 14 µg/mL (≈ 1360 µM) | HSV-2 EC50 (HSV-2): >500 µg/mL

O=C1CCC(=O)N1N1C(=O)c2cccc3cccc(c23)C1=O [Compound 19]
HSV-1 EC50 (HSV-1): >500 µg/mL | CC50 (Vero cells): 220 ± 16 µg/mL (≈ 748 µM) | HSV-2 EC50 (HSV-2): >500 µg/mL
